The values below come from BindingDB's records for doi:10.1016/j.bmc.2014.04.036 (Amri, 2014).

Bounds are passed on as bounds.

The target of this test is T1, Sodium/glucose cotransporter 1 (Homo sapiens, UniProt P13866).
T1 sequence (P13866 whole entry): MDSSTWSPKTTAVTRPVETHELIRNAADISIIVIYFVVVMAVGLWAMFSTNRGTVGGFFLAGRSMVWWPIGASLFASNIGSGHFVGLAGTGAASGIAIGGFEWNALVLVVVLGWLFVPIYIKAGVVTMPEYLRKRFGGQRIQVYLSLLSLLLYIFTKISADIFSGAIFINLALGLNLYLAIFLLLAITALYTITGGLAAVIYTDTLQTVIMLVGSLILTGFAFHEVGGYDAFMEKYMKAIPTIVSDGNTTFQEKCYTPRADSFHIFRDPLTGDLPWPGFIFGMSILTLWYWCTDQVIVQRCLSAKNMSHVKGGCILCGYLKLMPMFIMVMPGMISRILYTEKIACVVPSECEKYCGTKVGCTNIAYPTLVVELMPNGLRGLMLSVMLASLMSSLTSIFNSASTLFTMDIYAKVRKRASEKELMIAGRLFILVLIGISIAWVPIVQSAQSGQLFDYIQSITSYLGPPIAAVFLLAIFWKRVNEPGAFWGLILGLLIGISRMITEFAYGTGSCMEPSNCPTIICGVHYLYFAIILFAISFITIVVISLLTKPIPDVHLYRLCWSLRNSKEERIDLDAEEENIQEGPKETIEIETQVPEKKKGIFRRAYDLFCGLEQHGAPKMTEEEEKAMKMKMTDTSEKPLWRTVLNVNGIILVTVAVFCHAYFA
Put plainly: Inhibition of human SGLT1 expressed in CHOK1 cells assessed as inhibition of [14C]-AMG uptake after 3 hrs by microbeta scintillation counting analysis.
The term IC50 denotes the midpoint of a concentration-inhibition curve. `O=c1n(Cc2cc([C@@H]3O[C@H](CO)[C@@H](O)[C@H](O)[C@H]3O)ccc2Cl)nc2ccc(CO)cn12` [US8575114, I-6]: the IC50 was over 90 µM.
For the compound `O=c1n(Cc2cc([C@@H]3O[C@H](CO)[C@@H](O)[C@H](O)[C@H]3O)ccc2Cl)nc2ccc(C(F)(F)F)cn12` [US8575114, I-5], the IC50 is over 90 µM.
With `Cc1cc2nn(Cc3cc([C@@H]4O[C@H](CO)[C@@H](O)[C@H](O)[C@H]4O)ccc3Cl)c(=O)n2cc1Cl` [US8575114, I-12] the figure was over 90 µM.
